Results on 18 compounds are retold here after US4269940A, “Microbiological alkane oxidation process” (priority 1979, dated 1981).

The structures appear in SMILES notation.

Test [1] deals with P(40) particulate fraction of Methylosinus sp. (CRL-15, NRRL B-11,202). Kind of test: Oxidation of n-alkenes and n-alkanes by P(40) particulate fraction (Table X). In kind it is biochemical. The settings on record: P(40) fraction, 30° C.
Test [2] relates to cell suspensions of the strains of C1-utilizers tested. Kind of test: Production of methyl ketones from secondary alcohols by cell suspensions of C1-utilizers (strains tested). Format: cell-based. The following applies: for Inhibition of production of 2-butanone from 2-butanol: cell suspensions of the strains tested. From the text: The substrate specificity for the oxidation of C3 -C6 secondary alcohols by the strains of C1 -utilizers was studied.

Test [3] deals with purified secondary alcohol dehydrogenase. Kind of test: Substrate and electron acceptor specificity of purified yeast secondary alcohol dehydrogenase. Format: biochemical, Pichia sp. NRRL Y-11,328. On the procedure: (§1) Large scale cultures of Pichia sp. NRRL Y-11,328 were grown with aeration at 30° C. in a 14-liter New Brunswick f fermentor in a mineral salt medium containing methanol (0.4%, v/v) as the sole carbon source. The cells (200 g., wet weight) were suspended in 50 mm sodium phosphate buffer, pH 7.0, containing 1 mM dithiothreitol (buffer A), and crude extracts were prepared as described previously. To the crude extracts, 18 ml. of protamine sulfate solution [2% solution in 0.1 M tris (hydroxymethyl) aminomethane (tris) base] was added dropwise with continuous stirring. After standing for 30 min., the extracts were centrifuged at 20,000 x g. for 60 min. The supernatant solution was fractioned with solid ammonium sulfate. Extracts were brought to 50% of saturation with respect to ammonium sulfate by addition of 313 g. of the salt per liter of extract. Precipitated proteins was removed by centrifugation, and 137 g. of ammonium sulfate was added per liter of the supernatant liquid to bring it to 70% of saturation. Material precipitating between 50 and 70% of saturation was collected by centrifugation and dissolved in buffer A. This preparation was dialyzed overnight against buffer A, and the dialyzed material was applied to a DEAE-cellulose column (5×40 cm) that had been equilibrated with buffer A. The sample was washed with 200 ml. of buffer A and eluted with 2 liters of buffer A that contained NaCl in a linear gradient running from a concentration of 0 to 0.5 M. Fractions of 15 ml. were collected. Fractions containing secondary alcohol dehydrogenase activity were pooled and were termed DEAE-cellulose eluate. The DEAE-cellulose eluate was concentrated by ammonium sulfate fractionation.
(§2) Secondary alcohol dehydrogenase activity was measured spectrophotometrically at 340 nm with a NAD^+ as an electron acceptor. The reaction mixture, in a total 3.0 ml., contained 50 mM phosphate buffer, pH 8.0, 5μmoles NAD^+, crude extracts, and substrate. The reactions were started by addition of 100 μof 0.1 M substrate and the rate of NAD^+ reduction was measured. Protein concentration was determined by the method of Lowry et al.
The substrate specificity of the purified secondary alcohol dehydrogenase was examined spectrophotometrically.

For test [4], the system named is secondary alcohol dehydrogenase (SADH). Briefly: Substrate specificity and Michaelis constants of purified SADH. In kind it is biochemical, Pseudomonas sp. ATCC 21439. On the procedure:
(§3) Secondary alcohol dehydrogenase (SADH) from an obligate methanol utilizer, Pseudomonas sp. ATCC 21439 was purified as follows. […] 0.05 M sodium phosphate buffer, pH 7.0 with 0.5mM dithiothretol (buffer A) and were disrupted sonically (5×1 min.). The crude extract was separated by centrifugation. The crude extract was heat-treated at 50° C. in a water bath for 10 minutes. The resulting precipitate was removed by centrifugation. To the supernatant solution, 25 ml of protamine sulfate solution (2% solution in 0.1 M Tris base) was added dropwise with continuous stirring. After standing for 30 minutes, the extract was centrifuged. The supernatant solution was fractionated with solid ammonium sulfate. […] This DEAE-cellulose eluate was concentrated by ammonium sulfate fractionation. Material precipitating between 30 and 50% ammonium sulfate saturation was collected by centrifugation and dialyzed overnight against A. This fraction was further washed and filtered through an Amicon unit with XM 50 membrane. The concentrated fraction (6 ml) inside the Amicon unit was applied to an Affi-Gel Blue column (0.8 cm ×18 cm) which had been equilibrated with buffer A for affinity chromatography. The column was washed overnight with buffer A (0.18 ml./min.) and then was eluted with buffer A containing 5 mM NAD. Each 1 ml. fraction was collected.
(§4) The purified secondary alcohol dehydrogenase enzyme (SADH) may be used directly for converting C3 -C6 secondary alcohols to the corresponding methyl ketones by the procedures described above; however, a source of NAD^+ must be added to the reaction medium. One can determine the NAD-linked secondary alcohol dehydrogenase activity with a fluorescence spectrophotometer (Perkin Elmer, Model MPF 44A) by following the formation of reduced NAD (Ex 340 nm, Em 460 nm). The assay system (3 ml.) will typically contain: sodium phosphate buffer pH 7.0, 150 μmol; NAD 1.0 μmol; a given amount of enzyme preparation; and 20 μmol secondary alcohol. The reaction is started by the addition of secondary alcohol. One unit of SADH enzyme activity represents the reduction of one nmole NAD per minute.

The test system of test [5] is purified secondary alcohol dehydrogenase. Briefly: Stoichiometry of isopropanol and sec-butanol oxidation by the purified secondary alcohol dehydrogenase (Table XXIV). In kind it is biochemical, Pichia sp. NRRL Y-11,328. The following applies: substrate 5.7 (isopropanol) or 6.0 (2-butanol) μmoles. On the procedure: ^a The estimation of NAD^+ reduced was measured
spectrophotometrically at 340 nm.
^b The estimation of products was detected by gas chromatography as
described in the methods.

Test [6] relates to cell-free soluble extracts (SADH system). Briefly: Cofactor requirement of cell-free SADH system (2-butanol to 2-butanone). Format: biochemical. On the procedure:
The clear supernatant contained the SADH activity. […] The reaction was started by the addition of substrate.
Catalytic activity was also assayed by fluorescence spectrophotometry.

The subject of test [7] is P(40) fraction of Methylosinus sp. (CRL-15, NRRL B-11,202). Briefly: Effect of inhibitors on propylene epoxidation and methane hydroxylation by P(40) fraction (Table XI). The following applies: inhibitor 10^-3 M. In kind it is biochemical. On the procedure:
The oxidation of methane and propylene by particulate [(P)40 and (P)80] fractions and soluble [S(80)] fraction was measured at 30° C. by estimating the production of methanol and propylene oxide, respectively. The reaction mixtures contained in 1.0 ml: 150 mM potassium phosphate buffer, pH 7.0 containing 5 mM MgC2, 0.6 ml; 10 μmoles NADH, and cellular fraction.
Reaction mixtures were contained in 10 ml vials at 4° C. Vials were sealed with rubber caps. The gaseous phase in the vials was removed using vacuum and then was replaced with a gas mixture of methane or propylene and oxygen at a 1:1, v/v ratio. Oxidation of other gaseous n-alkanes and n-alkenes was examined as described above. For liquid substrates, 10 μ of substrate was used directly. Vials were then incubated at 30° C. on a rotary shaker at 200 RPM.
The products of epoxidation of n-alkenes and hydroxylation of n-alkanes were assayed by flame ionization gas chromatography using a stainless steel column (12'×1/8") packed with 10% Carbowax 20M on 80/100 Chromosorb W and Porapak Q column. The column temperature was maintained isothermally at 120° C. The carrier gas flow rate was 30 ml/min. of helium. The various products were identified by retention time comparisons and co-chromatography with authentic standards.
It has been reported that the oxidation of methane by cell suspensions of methane-utilizing bacteria was inhibited by various metal-binding or metal-chelating agents (Patel et al., J. Bacteriol. 126: 1017-1019 (1976)). […] (CRL-15, NRRL B-11,202) was examined.

The test system of test [8] is purified secondary alcohol dehydrogenase. Kind of test: Inhibition of purified yeast secondary alcohol dehydrogenase. Format: biochemical, Pichia sp. NRRL Y-11,328. The settings on record: purified yeast enzyme. On the procedure: as §1, §2
Various primary alcohols not oxidized by secondary alcohol dehydrogenase were tested as potential inhibitors of enzyme activity.

Test [9] has as its system secondary alcohol dehydrogenase (SADH). Briefly: Inhibition of purified secondary alcohol dehydrogenase (SADH). Format: biochemical, Pseudomonas sp. ATCC 21439. The following applies: inhibitor 1 mM, measured spectrofluorometrically. On the procedure:
as §3, §4
The effect of metal-chelating agents and thioreagents on the activity of the purified SADH enzyme were studied. […] The possibility of ethanol or n-propanol as an inhibitor was studied.

Test [10] relates to cell-free particulate fractions derived from the methylotrophic microorganisms. Briefly: Inhibition of conversion of C3-C6 n-alkanes to sec. alcohols by cell-free particulate fractions. Format: biochemical. The settings on record: oxygen and NADH. The source says:
The conditions for preparing the cell suspensions or the cell-free particulate fractions from methane-grown methylotroph microorganisms is the same as described above.

Test [11] concerns Methylobacter vinelandii (CRL M5Y NRRL B-11,218). Kind of test: Microbiological oxidation of cyclic hydrocarbons by methane-grown washed cells (Example 7). Format: cell-based. The following applies: aerobic. On the procedure: A 0.5 ml sample of each washed cell suspension (2 mg cells) was put into 10 ml vials at 4° C. which were sealed with a rubber cap. The gaseous phase of the vials was removed with vacuum and then was replaced with a gas mixture of the oxidative substrate (e.g., methane) and oxygen at a 1:1 v/v ratio. […] Samples of product (3 μl) were withdrawn periodically with a microsyringe and the products were analyzed by gas chromatography (ionization flame detector column).
Methylobacter vinelandii (CRL M5Y NRRL B-11,218) was aerobically grown in a methane-containing nutrient medium in the manner described in Example 1 and the methane-grown washed cells were contacted under aerobic conditions with cyclohexane, benzene and toluene.

Turning to `C=CCC` [1-Butene], the “Rate of product formation (substrate to epoxide or alcohol)” value (“Rate of product formation” below) in test [1] was 2.18 μ moles/hr/mg of protein.
Turning to `CC(C)O` [2-propanol], in test [2] (cell suspensions of C1-utilizers), the “Rate of oxidation of secondary alcohols to methyl ketones” value is given as “higher rates”. In addition, the “Oxidation by the purified yeast enzyme (in words)” value in test [3] (examined spectrophotometrically) is given as “catalyzed the oxidation”. For the same compound, the “Oxidation by purified SADH (in words)” value in test [4] is recorded as “highest”. The “Product formed (acetone or 2-butanone)” value in test [5] (gas chromatography) was determined as 5.5 µmol. Besides, the “NAD^+ reduced” value in test [5] (spectrophotometrically at 340 nm) came to 5.4 µmol.
`C=CCCC` [1-Pentene]: in [1], the “Rate of product formation” value was 0 μ moles/hr/mg of protein.
As for `Cc1cc2nc3c(=O)[nH]c(=O)nc-3n(C[C@H](O)[C@H](O)[C@H](O)COP(=O)(O)OP(=O)(O)OC[C@H]3O[C@@H](n4cnc5c(N)ncnc54)[C@H](O)[C@@H]3O)c2cc1C` [FAD, flavin adenine dinucleotide, reference compound], the “Effectiveness as cofactor of the cell-free SADH system” value in test [6] is recorded as “not effective”. Moreover, the “Function as electron acceptor/carrier for the purified yeast enzyme” value (shortened to “Function as electron acceptor/carrier”) in test [3] was “could not act as electron carrier”.
On to `C=C` [Ethylene], for which the “Rate of product formation” value in test [1] is given as 1.27 μ moles/hr/mg of protein.
Consider `O=C1C(Cl)=CC(=Nc2ccc(O)cc2)C=C1Cl` [dichlorophenol indophenol, reference compound], for which the “Effectiveness as cofactor of the cell-free SADH system” value in test [6] is listed as “not effective”. The “Function as electron acceptor/carrier” value in test [3] is given as “could not act as electron carrier”.
Turning to `c1cnc2c(c1)ccc1cccnc12` [1,10-phenanthroline], the “Inhibition of production of 2-butanone from 2-butanol” value in [2] was “inhibited”. In test [7], the “% inhibition of methane-hydroxylating activity” value amounted to 90% and the “% inhibition of propylene-epoxidizing activity” value is recorded as 93%. Moreover, in test [8], the “Inhibition of secondary alcohol dehydrogenase activity (in words)” value is recorded as “strongly inhibited”. Further, the “% inhibition of SADH activity” value in [9] was 95%. The “Inhibition of conversion of C3-C6 n-alkanes to sec. alcohols (in words)” value in test [10] was “inhibited”.
With `C[n+]1c2ccccc2nc2ccccc21` [phenazine methosulfate, reference compound], the “Effectiveness as cofactor of the cell-free SADH system” value in test [6] is on record as “not effective”. Besides, the “Function as electron acceptor/carrier” value in test [3] is recorded as “could not act as electron carrier”.
With `N[C@@H](CCC(=O)N[C@@H](CS)C(=O)NCC(=O)O)C(=O)O` [glutathione], the “Effectiveness as cofactor of the cell-free SADH system” value in [6] is listed as “not effective”. In addition, the “Inhibition of secondary alcohol dehydrogenase activity (in words)” value in test [8] is given as “strongly inhibited”.
Consider `CC` [Ethane], for which the “Rate of product formation” value in [1] is 3.2 μ moles/hr/mg of protein.
Turning to `NC(=O)c1ccc[n+]([C@@H]2O[C@H](COP(=O)([O-])OP(=O)(O)OC[C@H]3O[C@@H](n4cnc5c(N)ncnc54)[C@H](OP(=O)(O)O)[C@@H]3O)[C@@H](O)[C@H]2O)c1` [NADP, reference compound], in test [6], the “Effectiveness as cofactor of the cell-free SADH system” value is given as “not effective”. Also, the “Function as electron acceptor/carrier” value in test [3] was “could not act as electron carrier”.
`Cc1ccccc1` [toluene]: the Oxidative conversion result in test [11] was “no oxidative conversion was detected”.
As to `C=CC=C` [Butadiene], in test [1], the “Rate of product formation” value was 0.63 μ moles/hr/mg of protein.
Consider `NC(=O)C1=CN([C@@H]2O[C@H](COP(=O)(O)OP(=O)(O)OC[C@H]3O[C@@H](n4cnc5c(N)ncnc54)[C@H](OP(=O)(O)O)[C@@H]3O)[C@@H](O)[C@H]2O)C=CC1` [NAD(P)H], for which, in test [6], the “Effectiveness as cofactor of the cell-free SADH system” value is on record as “not effective”.
Regarding `c1ccccc1` [benzene], in test [11], the Oxidative conversion result was “no oxidative conversion was detected”.
As to `c1ccc(-c2ccccn2)nc1` [α,α-bipyridyl], the “Inhibition of production of 2-butanone from 2-butanol” value in test [2] is reported as “inhibited”. Further, in test [7], the “% inhibition of methane-hydroxylating activity” value is reported as 99% and the “% inhibition of propylene-epoxidizing activity” value stood at 98%. The “% inhibition of SADH activity” value in test [9] was determined as 70%. In test [10], the “Inhibition of conversion of C3-C6 n-alkanes to sec. alcohols (in words)” value was “inhibited”.
Regarding `C1CCCCC1` [Cyclohexane], the “Conversion rate to cyclohexanol” value in test [11] worked out at 1.5 μmoles/2 hr./mg. protein.
Regarding `NC(=O)c1ccc[n+]([C@@H]2O[C@H](COP(=O)([O-])OP(=O)(O)OC[C@H]3O[C@@H](n4cnc5c(N)ncnc54)[C@H](O)[C@@H]3O)[C@@H](O)[C@H]2O)c1` [NAD, Nicotinamide adenine dinucleotide, reference compound], in test [6], the “Effectiveness as cofactor of the cell-free SADH system” value is reported as “required”. Moreover, the “Function as electron acceptor/carrier” value in test [3] is given as “required”.
